Source: patent US10800792B2, “Inhibitors of Bruton's tyrosine kinase and method of their use” (JANSSEN PHARMACEUTICA NV, priority 2015, dated 2020)

Target: unphosphorylated-BTK kinase domain (UP-BTK), GST-tagged human BTK (389-659aa) (Homo sapiens (Human), UniProt Q06187)
Experiment: BTK kinase Lanthascreen binding assay
Details: Lanthascreen tracer competition, 60 minutes incubation; pIC50 = negative log of the IC50 in molar
Outline: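 Tracer-displacement binding assay against the non-phosphorylated enzyme, read by Lanthascreen. Reported: pIC50.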

Chain of unphosphorylated-BTK kinase domain (UP-BTK), GST-tagged human BTK (389-659aa) (Q06187 389-659): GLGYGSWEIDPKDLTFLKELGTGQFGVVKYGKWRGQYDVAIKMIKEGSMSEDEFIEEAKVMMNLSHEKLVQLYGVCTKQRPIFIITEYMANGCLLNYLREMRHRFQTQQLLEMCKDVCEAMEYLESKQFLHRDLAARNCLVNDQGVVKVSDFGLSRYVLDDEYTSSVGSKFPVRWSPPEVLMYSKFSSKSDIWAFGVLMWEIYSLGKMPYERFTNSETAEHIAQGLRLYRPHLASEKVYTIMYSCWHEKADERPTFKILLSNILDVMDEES

Compound | BTK_I_binding pIC50
C=CC(=O)N1CC[C@@H](NC(=O)c2sc3nccc4c3c2NC(=O)N4c2ccc(Oc3ccccc3)nc2)C1 [Example 680, (R)—N-(1-Acryloylpyrrolidin-3-yl)-4-oxo-5-(6-phenoxypyridin-3-yl)-4,5-dihydro-3H-1-thia-3,5,8-triazaacenaphthylene-2-carboxamide] | 7.3
Cc1cc(Oc2cccc(COc3ccccc3C#N)c2)ccc1N1C(=O)Nc2c(C(=O)NC3CCN(C)CC3)sc3nccc1c23 [Example 855, 5-(4-(3-((2-Cyanophenoxy)methyl)phenoxy)-2-methylphenyl)-N-(1-methylpiperidin-4-yl)-4-oxo-4,5-dihydro-3H-1-thia-3,5,8-triazaacenaphthylene-2-carboxamide] | 7.5
C=CC(=O)N1CCC(Nc2sc3nccc4c3c2NC(=O)N4c2ccc(Oc3ccccc3)cc2C)CC1 [Example 606, 2-((1-Acryloylpiperidin-4-yl)amino)-5-(2-methyl-4-phenoxyphenyl)-3H-1-thia-3,5,8-triazaacenaphthylen-4(5H)-one] | 6.2
CC(C)(C)OC(=O)N1CCC[C@@H](NC(=O)c2sc3nccc4c3c2NC(=O)N4c2ccc(S(=O)(=O)C(C)(C)C)cc2)C1 [Example 651, (R)-tert-Butyl 3-(5-(4-(tert-butylsulfonyl)phenyl)-4-oxo-4,5-dihydro-3H-1-thia-3,5,8-triazaacenaphthylene-2-carboxamido)piperidine-1-carboxylate] | <5
Cc1cc(Oc2ccccc2)ccc1N1C(=O)Nc2c(C(=O)N[C@@H]3CCCN(C(=O)/C=C/CN4CCCC4)C3)sc3nccc1c23 [Example 867, (R,E)-5-(2-Methyl-4-phenoxyphenyl)-4-oxo-N-(1-(4-(pyrrolidin-1-yl)but-2-enoyl)piperidin-3-yl)-4,5-dihydro-3H-1-thia-3,5,8-triazaacenaphthylene-2-carboxamide] | 7.3

Same assay, conditions: Lanthascreen tracer competition, 60 minutes incubation; pIC50 = negative log of the IC50 in molar; read-out: BTK_I_binding pIC50 (converted)

Compound | IC50 [nM]
Cc1cc(Oc2ccccc2)ccc1N1C(=O)Nc2c(C(=O)N[C@@H]3CCCN(C(=O)[C@@H]4CCCN4)C3)sc3nccc1c23 [Example 893, 5-(2-Methyl-4-phenoxyphenyl)-4-oxo-N—((R)-1-((S)-pyrrolidine-2-carbonyl)piperidin-3-yl)-4,5-dihydro-3H-1-thia-3,5,8-triazaacenaphthylene-2-carboxamide] | 100

Same assay, conditions: pIC50 = negative log of the IC50 in molar; 60 minutes incubation, 50 nM Tracer 236

Compound | BTK_I_binding pIC50
C=CC(=O)N1CC[C@@H](NC(=O)c2sc3nccc4c3c2NC(=O)N4c2ccc(CC)cc2C)C1 [Example 119, (R)—N-(1-Acryloylpyrrolidin-3-yl)-5-(4-ethyl-2-methylphenyl)-4-oxo-4,5-dihydro-3H-1-thia-3,5,8-triazaacenaphthylene-2-carboxamide] | 6.6
Cc1cc(OC(C)C)ccc1N1C(=O)Nc2c(C(=O)N[C@@H]3CCCN(C(=O)/C(C#N)=C/C4CC4)C3)sc3nccc1c23 [Example 102, (R,E)-N-(1-(2-Cyano-3-cyclopropylacryloyl)piperidin-3-yl)-5-(4-isopropoxy-2-methylphenyl)-4-oxo-4,5-dihydro-3H-1-thia-3,5,8-triazaacenaphthylene-2-carboxamide] | 7.5
Cc1cc(Oc2ccccc2)ccc1N1C(=O)Nc2c(C(=O)NC3CN(C)C3)sc3nccc1c23 [Example 248, 5-(2-Methyl-4-phenoxyphenyl)-N-(1-methylazetidin-3-yl)-4-oxo-4,5-dihydro-3H-1-thia-3,5,8-triazaacenaphthylene-2-carboxamide] | 6.5
Cc1cc(Oc2ccccc2)ccc1N1C(=O)Nc2c(C(=O)N[C@@H]3CCCN(C(=O)/C(C#N)=C/C(C)(C)NC4CC4)C3)sc3nccc1c23 [Example 152, (R,E)-N-(1-(2-Cyano-4-(cyclopropylamino)-4-methylpent-2-enoyl)piperidin-3-yl)-5-(2-methyl-4-phenoxyphenyl)-4-oxo-4,5-dihydro-3H-1-thia-3,5,8-triazaacenaphthylene-2-carboxamide] | 7.3
C=CC(=O)N1CCC[C@@H](NC(=O)c2sc3nccc4c3c2NC(=O)N4c2ccc(Oc3ccccc3)cc2Cl)C1 [Example 15, (R)—N-(1-Acryloylpiperidin-3-yl)-5-(2-chloro-4-phenoxyphenyl)-4-oxo-4,5-dihydro-3H-1-thia-3,5,8-triazaacenaphthylene-2-carboxamide] | 7.6
COC(C)CC(=O)N1CCC[C@@H](NC(=O)c2sc3nccc4c3c2NC(=O)N4c2ccc(Oc3ccccc3)cc2C)C1 (stereo partly drawn) [Example 155, N-((3R)-1-(3-Methoxybutanoyl)piperidin-3-yl)-5-(2-methyl-4-phenoxyphenyl)-4-oxo-4,5-dihydro-3H-1-thia-3,5,8-triazaacenaphthylene-2-carboxamide] | 7.0
Cc1cc(Oc2ccccc2)ccc1N1C(=O)Nc2c(C(=O)N[C@@H]3CCCN(C(=O)CN(C)C)C3)sc3nccc1c23 [Example 78, (R)—N-(1-(2-(Dimethylamino)acetyl)piperidin-3-yl)-5-(2-methyl-4-phenoxyphenyl)-4-oxo-4,5-dihydro-3H-1-thia-3,5,8-triazaacenaphthylene-2-carboxamide] | 7.3

Same assay, conditions: pIC50 = negative log of the IC50 in molar; 60 minutes incubation, 50 nM Tracer 236; read-out: BTK_I_binding pIC50 (converted)

Compound | IC50 [nM]
Cc1cc(Oc2ccccc2)ccc1N1C(=O)Nc2c(C(=O)NC3CN(C(=O)CCS(C)(=O)=O)C3)sc3nccc1c23 [Example 240] | 200

Same assay, conditions: unphosphorylated-BTK kinase domain, 50 nM Tracer 236, 60 minutes; pIC50 = negative log of the IC50 in molar

Compound | BTK_I_binding pIC50
CN(C)c1cccc(N2C(=O)Nc3c(C(=O)N[C@@H]4CCCNC4)sc4nccc2c34)c1 [Example 356, (R)-5-(3-(Dimethylamino)phenyl)-4-oxo-N-(piperidin-3-yl)-4,5-dihydro-3H-1-thia-3,5,8-triazaacenaphthylene-2-carboxamide] | <5
Cc1cc(Oc2ccccc2)ccc1N1C(=O)Nc2c(C(=O)N[C@@H]3CCN(C(=O)CN)C3)sc3nccc1c23 [Example 392, (R)—N-(1-(2-Aminoacetyl)pyrrolidin-3-yl)-5-(2-methyl-4-phenoxyphenyl)-4-oxo-4,5-dihydro-3H-1-thia-3,5,8-triazaacenaphthylene-2-carboxamide] | 7.4
C/C=C/C(=O)N1CCC[C@@H](NC(=O)c2sc3nccc4c3c2NC(=O)N4c2ccc(Oc3ccccc3)cc2C)C1 (single isomer, unassigned) [Example 474, (R,*E)-N-(1-(But-2-enoyl)piperidin-3-yl)-5-(*R)-(2-methyl-4-phenoxyphenyl)-4-oxo-4,5-dihydro-3H-1-thia-3,5,8-triazaacenaphthylene-2-carboxamide] | 7.6
Cc1cc(Oc2ccccc2)ccc1N1C(=O)Nc2c(C(=O)N[C@@H]3CCCN(C(=O)C(=CC4CC4)C(F)(F)F)C3)sc3nccc1c23 (mixture of isomers) [Example 313, (R,EZ)—N-(1-(3-Cyclopropyl-2-(trifluoromethyl)acryloyl)piperidin-3-yl)-5-(2-methyl-4-phenoxyphenyl)-4-oxo-4,5-dihydro-3H-1-thia-3,5,8-triazaacenaphthylene-2-carboxamide] | 5.9
Cc1cc(Oc2ccccc2)ccc1N1C(=O)Nc2c(C(=O)N[C@@H]3CCCN(C(=O)/C=C/CN4CCOCC4)C3)sc3nccc1c23 [Example 403, (R,E)-5-(2-Methyl-4-phenoxyphenyl)-N-(1-(4-morpholinobut-2-enoyl)piperidin-3-yl)-4-oxo-4,5-dihydro-3H-1-thia-3,5,8-triazaacenaphthylene-2-carboxamide] | 6.4
C=CC(=O)N1CCC[C@@H](NC(=O)c2sc3nccc4c3c2NC(=O)N4c2cccc(OC3CCCC3)c2)C1 [Example 561, (R)—N-(1-Acryloylpiperidin-3-yl)-5-(3-(cyclopentyloxy)phenyl)-4-oxo-4,5-dihydro-3H-1-thia-3,5,8-triazaacenaphthylene-2-carboxamide] | 7.3
CNCC(=O)N1CCC[C@@H](NC(=O)c2sc3nccc4c3c2NC(=O)N4c2ccc(Oc3ccccc3)c(Cl)c2)C1 [Example 575, (R)-5-(3-Chloro-4-phenoxyphenyl)-N-(1-(2-(methylamino)acetyl)piperidin-3-yl)-4-oxo-4,5-dihydro-3H-1-thia-3,5,8-triazaacenaphthylene-2-carboxamide] | 7.3
C=CC(=O)N1C[C@H](NC(=O)c2sc3nccc4c3c2NC(=O)N4c2ccc(Oc3ccccc3)cc2)[C@@H](OC)C1 [Example 548, N-((3S,4S)-1-Acryloyl-4-methoxypyrrolidin-3-yl)-4-oxo-5-(4-phenoxyphenyl)-4,5-dihydro-3H-1-thia-3,5,8-triazaacenaphthylene-2-carboxamide] | 6.9
CO[C@H]1CNC[C@@H]1NC(=O)c1sc2nccc3c2c1NC(=O)N3c1ccc(Oc2ccccc2)cc1 [Example 588, N-((3S,4S)-4-Methoxypyrrolidin-3-yl)-4-oxo-5-(4-phenoxyphenyl)-4,5-dihydro-3H-1-thia-3,5,8-triazaacenaphthylene-2-carboxamide] | 6.4

Same assay, conditions: unphosphorylated-BTK kinase domain, 50 nM Tracer 236, 60 minutes; pIC50 = negative log of the IC50 in molar; read-out: BTK_I_binding pIC50 (converted)

Compound | IC50 [nM]
[2H]c1c([2H])c([2H])c(Oc2ccc(N3C(=O)Nc4c(C(=O)N[C@@H]5CCCN(C(=O)C=C)C5)sc5nccc3c45)c(C)c2)c([2H])c1[2H] [Example 375, (R)—N-(1-Acryloylpiperidin-3-yl)-5-(2-methyl-4-(2,3,4,5,6-pentadeuteriophenoxy)phenyl)-4-oxo-4,5-dihydro-3H-1-thia-3,5,8-triazaacenaphthylene-2-carboxamide] | 12.6

Same assay, conditions: unphosphorylated-BTK kinase domain, 60 minutes incubation, 50 nM Tracer 236; pIC50 = negative log of the IC50 in molar

Compound | BTK_I_binding pIC50
CN1CCN(CCNC(=O)c2sc3nccc4c3c2NC(=O)N4c2ccc(Oc3ccccc3)cc2)CC1 [Example 935, N-(2-(4-Methylpiperazin-1-yl)ethyl)-4-oxo-5-(4-phenoxyphenyl)-4,5-dihydro-3H-1-thia-3,5,8-triazaacenaphthylene-2-carboxamide] | 6.0
